Test results taken from paper PMC7406860, “Redox Imbalance and Oxidative DNA Damage During Isoniazid Treatment of HIV-Associated Tuberculosis: A Clinical and Translational Pharmacokinetic Study” (Frontiers in Pharmacology, 2020).
Read-outs that look alike come from different tables or passages of the source.

Legend:
[1] = Clinical parent-metabolite pharmacokinetic study, plasma exposures after oral isoniazid; format: in vivo, human (TB patients); conditions: for AUC(0-t): human
Procedure: The parent-metabolite clinical pharmacokinetic study was approved by the Institutional Review Board of Rutgers University, Newark (protocol #20170001150). We performed intensive pharmacokinetic sampling for drug and metabolite concentrations in 10 TB patients (4 latent infection patients and 6 active TB patients) treated with isoniazid, in order to identify the relevant metabolite concentrations for subsequent pre-clinical experiments. After an overnight fast, patients were dosed with oral isoniazid (300 mg). A pre-dose blood draw was performed, with additional blood draws at 1, 2, 4, 6, and 8 h after dosing. Following centrifugation, plasma samples were stored at -80C until shipment to Alturas Analytics (Moscow, ID) for analysis. […] Noncompartmental pharmacokinetic analysis was performed to determine area under the concentration-versus-time curve (AUC), extrapolated over a 24-h dosing interval according to the slope defined in the elimination phase.

HepG2 cells [2] = assay: CometChip imaging of cellular DNA damage; format: cell-based, human; conditions: HepG2, 10 µM, 1 week; as compared to isoniazid
Procedure: (§1) The human liver carcinoma cell line, HepG2, is highly differentiated and is often used to screen the cytotoxicity potential of new chemical entities early in drug development ([Gerets et al., 2012]). HepG2 cells were cultured in Dulbecco’s modified Eagle’s medium (DMEM) supplemented with 10% fetal bovine serum (FBS), 100 U/ml penicillin, 100 μg/ml streptomycin, and 2mM L-glutamine, unless otherwise stated. Cells were continuously incubated at 37°C in a humidified 5% CO2/95% air environment and plated in a 12-well plate at 4x10^5 cells/well, over a duration of 24 h prior to compound exposure. Compound stocks dissolved in water were freshly made each exposure day. Cellular supernatant was replaced with 2 ml of culture media containing 10 µM of compound and left to incubate until 90% confluency was reached. Cell passages were conducted every 3 days under continual exposure to the designated compound for the indicated time period. Cellular supernatant was collected at each passage, clarified, aliquoted, and stored at -80°C for future analysis. Treated cells and supernatants were then examined for markers of cytotoxicity, mitochondrial toxicity, and oxidative DNA damage as described below.
Cells treated for 1 week with 10 µM of compound were plated onto a CometChip (Trevigen) at 2x10^5 cells/ml in a single cell suspension ([Ge et al., 2014]). Cells were incubated on the chip for 60 min at 37°C. The plate was then gently washed with PBS and coated with 1% low melting agarose. After the agarose was solidified by cooling at 4°C, the plate was washed with pre-chilled non-activated alkaline lysis buffer (2.5 M NaCl, […] Na2EDTA, 10mM Tris, pH 10). The chip was lysed overnight at 4°C by submerging the chip in the alkaline lysis buffer containing 1% Triton-X. The plate was then washed with PBS and placed in an electrophoresis chamber filled with pre-chilled alkaline electrophoresis buffer (2mM Na2 EDTA, 300 mM NaOH). Following a 40 min incubation at 4°C to allow for alkaline unwinding, electrophoresis was carried out at 80 volts for 30 min at 4°C. […]

HepG2 cells [3] = assay: Free thiol availability assay (ThiolTracker Violet), glutathione depletion; format: cell-based, human; conditions: HepG2, 10 µM, 28-day exposure period
Procedure: as §1, with “Cellular supernatant was collected at each passage, clarified, aliquoted, and stored at -80°C for future analysis. Treated cells and supernatants were then examined for markers of cytotoxicity, mitochondrial toxicity, and oxidative DNA damage as described below.” left out
By serving as targets of ROS, thiols provide the cellular defense system against oxidative stress. […] Cellular glutathione depletion was quantified in a free thiol availability assay ([Mandavilli and Janes, 2010]). […] Following a 30 min incubation at 37°C, cells were washed three times with D-PBS +C/M. Fluorescent intensity at 404nmEx/526nmEm was measured on a Synergy H1 Hybrid Multi-Mode Reader (BioTek).

HepG2 cells [4] = assay: 8-OHdG in cellular supernatant (competition ELISA); format: cell-based, human; conditions: HepG2, 10 µM, 28 days exposure
Procedure: as §1
Determination of 8-OHdG content in cellular supernatant was assed using an in-house competition ELISA. […] Absorbance at 405 nm was then measured on a Synergy H1 Hybrid Multi-Mode Reader (BioTek).

HepG2 cells [5] = assay: ATP production (Mitochondrial ToxGlo Assay); format: cell-based, human; conditions: HepG2, 10 µM, 28 days of treatment
Procedure: The human liver carcinoma cell line, HepG2, is highly differentiated and is often used to screen the cytotoxicity potential of new chemical entities early in drug development ([Gerets et al., 2012]). HepG2 cells were cultured in Dulbecco’s modified Eagle’s medium (DMEM) supplemented with 10% fetal bovine serum (FBS), 100 U/ml penicillin, 100 μg/ml streptomycin, and 2mM L-glutamine, unless otherwise stated. Cells were continuously incubated at 37°C in a humidified 5% CO2/95% air environment and plated in a 12-well plate at 4x10^5 cells/well, over a duration of 24 h prior to compound exposure. Compound stocks dissolved in water were freshly made each exposure day. […]
Mitochondrial toxicity analysis was assayed using the Mitochondrial ToxGlo Assay (Promega, Madison, WI) following the manufacturer’s instructions. […] Following a 24-h incubation with compound, cytotoxicity was evaluated by the addition of a fluorogenic peptide substrate, bis-AAF-R110, to the cell supernatant for 30 min at 37°C. […] After the cells were allowed to incubate for 30 min at 37°C, fluorescence intensity was measured at 485nmEx/525nmEm. […] Cell lysis mixture was transferred to a 96-well flat solid white bottom plate and luminescence intensity was measured. Assays of fluorescence and luminescence activity were performed with a Synergy H1 Hybrid Multi-Mode Reader (BioTek, Winooski, VT).

HepG2 cells [6] = assay: Immunofluorescence for γ-H2AX; format: cell-based, human; conditions: HepG2, 10 µM, 1-week exposure period; compared among the four compounds
Procedure: as §1
H2Ax is a core histone protein found in the nucleosome, and the phosphorylation of H2Ax is a marker of DNA damage caused by ROS. […]

HepG2 cells [7] = assay: Mitochondrial membrane integrity (TMRM); format: cell-based, human; conditions: HepG2, 10 µM, 28 days of exposure
Procedure: as §1, with “Treated cells and supernatants were then examined for markers of cytotoxicity, mitochondrial toxicity, and oxidative DNA damage as described below.” left out
To assess mitochondrial membrane integrity, black 96-well polystyrene clear bottom plates were coated with 50 µg/ml of poly-d-lysine for 1 h at 37°C. […] Following three washes with PBS, fluorescent intensity at 488nmEx/570nmEm was measured on a Synergy H1 Hybrid Multi-Mode Reader (BioTek).

[8] = Linear regression of urine oxidative DNA damage (8-OHdG) on isoniazid pharmacokinetic exposures in HIV/TB patients; format: in vivo, human (HIV/TB patients, Botswana)
Description: We conducted a prospective cohort study of isoniazid pharmacokinetics among HIV/TB patients at 22 public clinics and Princess Marina Hospital in Gaborone, Botswana. The study population has been previously described ([Vinnard et al., 2017]). Eligibility criteria included citizens of Botswana, HIV infected adults (21 years of age or older) naïve to ART therapy, and newly diagnosed with pulmonary TB initiated on standard first-line TB regimens at weight-based dosing bands recommended in accordance with WHO guidelines. The study visit occurred between 5 and 28 days after initiation of first-line TB therapy that included isoniazid, prior to initiation of ART therapy.
After an overnight fast, the anti-TB drugs were directly administered. Blood samples (10 ml) were drawn at 0, 0.3, 0.9, 2.2, 4.5, and 8 h post-dosing, based on optimal sampling theory to estimate isoniazid pharmacokinetic parameters. Plasma isoniazid concentrations were measured with liquid chromatography-tandem mass spectrometry (LC-MS/MS) methods as previously described. The peak plasma concentration (Cmax) was obtained directly from the concentration-versus-time data), model-predicted isoniazid concentrations were used to estimate the area under the concentration-versus-time curve during a 24-h interval (AUC0-24). A spot urine sample (approximately 50 ml) was collected 4 h following anti-TB drug dosing and frozen at -80C until analysis. We measured urinary concentrations of 8-OHdG, a marker of oxidative DNA damage that is stable in cryopreserved urine samples, normalized to urine creatinine. The DNA Damage Competitive ELISA kit (ThermoFisher Scientific) was performed using a 1:4 dilution of urine-to-assay buffer. The manufacturer’s instructions were followed with one modification to the protocol. Antigen binding was performed overnight at 4°C with shaking in lieu of a 2-h incubation at room temperature. Each assay was performed in triplicate. Optical absorption was assessed using a Synergy H1 Hybrid Multimode Reader (BioTek). […]

HepG2 cells [9] = assay: Cytotoxicity (bis-AAF-R110 substrate, Mitochondrial ToxGlo Assay), long-term exposure; format: cell-based, human; conditions: HepG2, 10 µM, up to 28 days exposure
[10] = 10 isoniazid-treated patients, oral isoniazid 300 mg, noncompartmental, extrapolated over 24-h dosing interval

CC(=O)NN [Acetylhydrazine]
Observed median (range) of plasma AUC0-24 [1, 10]: 66.6 (43.2, 198.0) uM*hr | DNA damage by CometChip microscopy (HepG2 cells [2]): greater levels of DNA damage

CC(=O)NNC(=O)c1ccncc1 [Acetylisoniazid]
AUC(0-t) ([1]; in vivo, po, 300 mg): 158 µM·h | DNA damage by CometChip microscopy (HepG2 cells [2]): greater levels of DNA damage

NN [Hydrazine]
Thiol depletion (free thiol availability) (HepG2 cells [3]): greatest | Observed median (range) of plasma AUC0-24 [1, 10]: 14.5 (3.0, 27.8) uM*hr | 8-OhDG levels in cell supernatant (HepG2 cells [4]): highest increase | Cellular ATP production impairment (HepG2 cells [5]): greatest impairment | γ-H2AX levels (double-stranded DNA breaks) (HepG2 cells [6]): greatest | DNA damage by CometChip microscopy (HepG2 cells [2]): greater levels of DNA damage | TMRM depletion (mitochondrial membrane integrity) (HepG2 cells [7]): greatest depletion

NNC(=O)c1ccncc1 [Isoniazid]
Unadjusted regression coefficient (95% CI), isoniazid log AUC0-24 vs urine oxidative DNA damage ([8]; HIV/TB patients, first-line TB therapy): 0.474 (-0.272, 1.221) | Unadjusted regression coefficient (95% CI), isoniazid Cmax (mg/L) vs urine oxidative DNA damage ([8]; HIV/TB patients, first-line TB therapy, urine 8-OHdG normalized to creatinine): 0.153 (-0.060, 0.366) | Adjusted regression coefficient (95% CI), isoniazid Cmax (mg/L) vs urine oxidative DNA damage ([8]; adjusted for body weight, creatinine clearance, GSTA2 genotype): 0.241 (0.020, 0.462) | AUC(0-t) ([1]; plasma, 10 isoniazid-treated patients, oral isoniazid 300 mg, noncompartmental, extrapolated over 24-h dosing interval, read-out: Observed median (range) of plasma AUC0-24): 60.5 µM·h | Overall cytotoxicity (HepG2 cells [9]): no appreciable cytotoxicity
